Measured values as given in article PMC8155176, “Reversible modulation of circadian time with chronophotopharmacology” (Nature Communications, 2021).

Biological target: T1, CKIδ (Homo sapiens, UniProt P48730)
T1 construct: purchased Eurofins 14-520
T1 sequence (P48730 1-294 limits assumed): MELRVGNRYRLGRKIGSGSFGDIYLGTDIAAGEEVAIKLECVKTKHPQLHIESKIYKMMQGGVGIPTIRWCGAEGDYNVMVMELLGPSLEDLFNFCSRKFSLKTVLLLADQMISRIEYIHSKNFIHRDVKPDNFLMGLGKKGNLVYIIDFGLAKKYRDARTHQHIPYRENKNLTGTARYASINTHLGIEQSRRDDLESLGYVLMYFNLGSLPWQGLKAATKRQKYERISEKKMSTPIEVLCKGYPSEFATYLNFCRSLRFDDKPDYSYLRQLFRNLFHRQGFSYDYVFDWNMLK
Assay: In vitro kinase assay (Kinase Glo), CKIδ
Assay type: biochemical
Details: green light 530 nm vs dark
Description: A stock solution of 7.4 mM in DMSO was prepared and thermally adapted by heating to c.a. 100 °C for 1 min. Two series of eight samples were prepared with consecutive three-time dilutions from the stock solution. One of the series (‘dark’ samples) was prepared in dark Eppendorf tube, the other series (‘light’ samples) was pre-irradiated with UV light (365 nm, UV lamp Spectroline, ENB-280/FE, 1 × 8 Watt) for 45 min. For compound 9, 1 mM solution in DMSO was thermally adapted by heating to 80 °C for 2 min and split into two vials. One vial was kept in the dark and the other was irradiated with green light (530 nm, 3x Nichia NCSG219B-V1, 3 × 550 mW, Sahlmann Photochemical Solutions) for 60 min. Both dark-kept and irradiated samples were subjected to 8-point 3-fold dilutions. All the solutions were applied to the well plate under a red lamp in the dark room in order to prevent ambient-light-induced photo-isomerization. […]
By employing this method, all reactions were started at the same time, minimizing variance between different samples. […] After the incubation, 10 μL Kinase Glo® (Promega) was applied into the wells and the luminescent signal was recorded by a plate reader (BioTek Synergy H1 or Cytation). […]
The data obtained from the in vitro kinase assay was analyzed using GraphPad software, in which the luminescence outcome is normalized. […]

## CC(C)n1cnc2c(NCc3ccc(F)c(/N=N/c4c(F)cccc4F)c3F)ncnc21 [Compound 9]
  ratio of CKIδ IC50 of cis-isomer to trans-isomer: 3.7 times
